The source of these data is ChEMBL document CHEMBL6078630, “Design, synthesis, and bioactivity investigation of novel cyclic lipopeptide antibiotics targeting top-priority multidrug-resistant gram-negative bacteria” (Eur J Med Chem, 2024).

Values after ≈ are worked out from the molar mass of the structure shown. Bridge positions count the residues as written; N and C are the ends. Square brackets hold non-standard residues; d marks the D form. Peptide text beside a SMILES is read from it. * marks the point of attachment. Heptanoyl(6-Me) = CC(C)CCCCC(=O)*; dOrn = NCCC[C@@H](N)C(=O)O; Octanoyl = CCCCCCCC(=O)*; Orn = NCCC[C@H](N)C(=O)O; Dab = NCC[C@H](N)C(=O)O; Dap = NC[C@H](N)C(=O)O

Data set [1] relates to Acinetobacter baumannii. In words: Antibacterial activity against carbapenem-sensitive Acinetobacter baumannii clinical isolate 19-1 assessed as inhibition of bacterial growth incubated for 16 to 20 hrs by CLSI protocol based broth microdilution method. Format: functional. The following applies: time 16-20 hrs.
In data set [2] the test system is Pseudomonas aeruginosa. In words: Antibacterial activity against Pseudomonas aeruginosa ATCC 27853 assessed as inhibition of bacterial growth incubated for 16 to 20 hrs by CLSI protocol based broth microdilution method. Format: functional. To be noted: time 16-20 hrs.
Data set [3] deals with Pseudomonas aeruginosa. As to the kind of experiment: Antibacterial activity against carbapenem-resistant Pseudomonas aeruginosa clinical isolate 19-3 assessed as inhibition of bacterial growth incubated for 16 to 20 hrs by CLSI protocol based broth microdilution method. To be noted: time 16-20 hrs. Format: functional.
Data set [4] deals with Klebsiella pneumoniae. As to the kind of experiment: Antibacterial activity against carbapenem-resistant Klebsiella pneumoniae clinical isolate KPN+19-15 assessed as inhibition of bacterial growth incubated for 16 to 20 hrs by CLSI protocol based broth microdilution method. Format: functional. The following applies: time 16-20 hrs.
The subject of data set [5] is Klebsiella pneumoniae. In words: Antibacterial activity against carbapenem-resistant Klebsiella pneumoniae ATCC BAA-1705 assessed as inhibition of bacterial growth incubated for 16 to 20 hrs by CLSI protocol based broth microdilution method. Format: functional. To be noted: time 16-20 hrs.
Data set [6] deals with Acinetobacter baumannii. As to the kind of experiment: Antibacterial activity against Acinetobacter baumannii NCTC 13304 (OXA-27) assessed as inhibition of bacterial growth incubated for 16 to 20 hrs by CLSI protocol based broth microdilution method. Format: functional. The following applies: time 16-20 hrs.
The test system of data set [7] is Escherichia coli. In words: Antibacterial activity against Escherichia coli ATCC BAA-2523 assessed as inhibition of bacterial growth incubated for 16 to 20 hrs by CLSI protocol based broth microdilution method. The following applies: time 16-20 hrs. Format: functional.
Data set [8] is described as follows: Renal cytotoxicity against HK-2 cells incubated for 72 hrs by CCK8 assay. Format: toxicity, cell-based. To be noted: human.
The test system of data set [9] is Escherichia coli. As to the kind of experiment: Antibacterial activity against carbapenem-resistant Escherichia coli ATCC BAA-2340 assessed as inhibition of bacterial growth incubated for 16 to 20 hrs by CLSI protocol based broth microdilution method. Format: functional. The following applies: time 16-20 hrs.

As to `CC(C)CCCCC(=O)N[C@@H](CCN)C(=O)N[C@H](C(=O)N[C@H](CO)C(=O)N[C@H]1CCNC(=O)[C@H]([C@@H](C)O)NC(=O)[C@H](CCN)NC(=O)[C@H](CCN)NC(=O)[C@H](CC(C)C)NC(=O)[C@H](Cc2ccccc2)NC(=O)[C@H](CCN)NC1=O)[C@@H](C)O`, the MIC with Acinetobacter baumannii [1] is no more than 0.03 µg/mL; with Pseudomonas aeruginosa [2], 1 µg/mL (≈ 0.85 µM); in the data set with Pseudomonas aeruginosa [3], 2 µg/mL (≈ 1.7 µM); with Klebsiella pneumoniae [4] it was no more than 0.03 µg/mL; in the data set with Klebsiella pneumoniae [5] it was 0.125 µg/mL (≈ 0.106 µM); in the data set on Acinetobacter baumannii [6] it was no more than 0.03 µg/mL. In addition, the MIC is 0.06 µg/mL (≈ 0.051 µM) in the data set on Escherichia coli [7] and no more than 0.03 µg/mL in the data set on Escherichia coli [9]. In data set [8], the half-inhibitory concentration (IC50) at 72 h is greater than 500 µg/mL.
Turning to `CC(C)CCCCC(=O)N[C@@H](CCN)C(=O)N[C@H](C(=O)N[C@H](CO)C(=O)N[C@H]1CCNC(=O)[C@H]([C@@H](C)O)NC(=O)[C@H](CCN)NC(=O)[C@H](CCN)NC(=O)[C@H]([C@@H](C)O)NC(=O)[C@@H](Cc2ccccc2)NC(=O)[C@H](CN)NC1=O)[C@@H](C)O` ({Heptanoyl(6-Me)}-[Dab]T[dS][Dab][Dap][dF]T[Dab][Dab]T; lactam 4-C), the MIC in the data set on Acinetobacter baumannii [1] was 0.25 µg/mL (≈ 0.217 µM); in the data set with Pseudomonas aeruginosa [2], greater than 64 µg/mL; in the data set on Pseudomonas aeruginosa [3], 64 µg/mL (≈ 55.6 µM); in the data set with Klebsiella pneumoniae [4] it was 0.06 µg/mL (≈ 0.0522 µM); in the data set with Klebsiella pneumoniae [5], 0.25 µg/mL (≈ 0.217 µM); in the data set with Acinetobacter baumannii [6], 0.25 µg/mL (≈ 0.217 µM). The MIC in the data set with Escherichia coli [7] and in the data set on Escherichia coli [9] was 0.06 µg/mL (≈ 0.0522 µM) each time. The compound also gave an IC50 at 72 h in data set [8] greater than 500 µg/mL.
In the case of `CC(C)CCCCC(=O)N[C@@H](CCN)C(=O)N[C@H](C(=O)N[C@H](CO)C(=O)N[C@H]1CCNC(=O)[C@H]([C@@H](C)O)NC(=O)[C@H](CCN)NC(=O)[C@H](CCN)NC(=O)[C@H]([C@@H](C)O)NC(=O)[C@@H](Cc2ccccc2)NC(=O)[C@H](CCCN)NC1=O)[C@@H](C)O` ({Heptanoyl(6-Me)}-[Dab]T[dS][Dab][Orn][dF]T[Dab][Dab]T; lactam 4-C), the minimum inhibitory concentration (MIC) is greater than 64 µg/mL in the data set on Acinetobacter baumannii [1]; greater than 64 µg/mL with Pseudomonas aeruginosa [2]; greater than 64 µg/mL in the data set with Pseudomonas aeruginosa [3]; 64 µg/mL (≈ 54.3 µM) with Klebsiella pneumoniae [4]; 8 µg/mL (≈ 6.79 µM) in the data set with Klebsiella pneumoniae [5]; 64 µg/mL (≈ 54.3 µM) in the data set with Acinetobacter baumannii [6]. Further, the values for the MIC in the data set on Escherichia coli [7] and in the data set on Escherichia coli [9] were 8 µg/mL (≈ 6.79 µM) and 4 µg/mL (≈ 3.39 µM), respectively. Also, the half-inhibitory concentration (IC50) at 72 h in data set [8] is greater than 500 µg/mL.
As for `CC(C)CCCCC(=O)N[C@@H](CCN)C(=O)N[C@H](C(=O)N[C@H](CO)C(=O)N[C@H]1CCNC(=O)[C@H]([C@@H](C)O)NC(=O)[C@H](CCN)NC(=O)[C@H](CCCN)NC(=O)[C@H]([C@@H](C)O)NC(=O)[C@@H](Cc2ccccc2)NC(=O)[C@H](CCN)NC1=O)[C@@H](C)O` ({Heptanoyl(6-Me)}-[Dab]T[dS][Dab][Dab][dF]T[Orn][Dab]T; lactam 4-C), the MIC in the data set with Acinetobacter baumannii [1] worked out at 0.125 µg/mL (≈ 0.106 µM); in the data set with Pseudomonas aeruginosa [2], 4 µg/mL (≈ 3.39 µM); in the data set on Pseudomonas aeruginosa [3], 8 µg/mL (≈ 6.79 µM); in the data set on Klebsiella pneumoniae [4] it was 0.125 µg/mL (≈ 0.106 µM); in the data set with Klebsiella pneumoniae [5] it was 0.25 µg/mL (≈ 0.212 µM); in the data set on Acinetobacter baumannii [6], 0.125 µg/mL (≈ 0.106 µM). Also, the MIC in the data set with Escherichia coli [7] worked out at 0.125 µg/mL (≈ 0.106 µM); in the data set with Escherichia coli [9] it was 0.06 µg/mL (≈ 0.0509 µM). Besides, the IC50 at 72 h in data set [8] is greater than 500 µg/mL.
Consider `CC(C)CCCCC(=O)N[C@@H](CCN)C(=O)N[C@H](C(=O)N[C@H](CCCCN)C(=O)N[C@H]1CCNC(=O)[C@H]([C@@H](C)O)NC(=O)[C@H](CCN)NC(=O)[C@H](CCN)NC(=O)[C@H]([C@@H](C)O)NC(=O)[C@@H](Cc2ccccc2)NC(=O)[C@H](CCN)NC1=O)[C@@H](C)O`, for which the MIC amounted to 0.5 µg/mL (≈ 0.415 µM) in the data set with Acinetobacter baumannii [1]; 32 µg/mL (≈ 26.5 µM) with Pseudomonas aeruginosa [2]; 4 µg/mL (≈ 3.32 µM) with Pseudomonas aeruginosa [3]; 0.25 µg/mL (≈ 0.207 µM) with Klebsiella pneumoniae [4]; 0.125 µg/mL (≈ 0.104 µM) with Klebsiella pneumoniae [5]; 0.5 µg/mL (≈ 0.415 µM) in the data set on Acinetobacter baumannii [6]. The figures for the minimal inhibitory concentration (MIC) in the data set with Escherichia coli [7] and in the data set with Escherichia coli [9] were 0.125 µg/mL (≈ 0.104 µM) and 1 µg/mL (≈ 0.83 µM), respectively. This compound had an IC50 at 72 h in [8] greater than 500 µg/mL.
Turning to `CC(C)CCCCC(=O)N[C@@H](CCN)C(=O)N[C@H](C(=O)N[C@H](CCCN)C(=O)N[C@H]1CCNC(=O)[C@H]([C@@H](C)O)NC(=O)[C@H](CCN)NC(=O)[C@H](CCN)NC(=O)[C@H]([C@@H](C)O)NC(=O)[C@@H](Cc2ccccc2)NC(=O)[C@H](CCN)NC1=O)[C@@H](C)O` ({Heptanoyl(6-Me)}-[Dab]T[dOrn][Dab][Dab][dF]T[Dab][Dab]T; lactam 4-C), the MIC in the data set with Acinetobacter baumannii [1] came to 0.125 µg/mL (≈ 0.105 µM); in the data set on Pseudomonas aeruginosa [2], 0.25 µg/mL (≈ 0.21 µM); in the data set on Pseudomonas aeruginosa [3] it was 1 µg/mL (≈ 0.839 µM); in the data set with Klebsiella pneumoniae [4] it was 0.125 µg/mL (≈ 0.105 µM); in the data set on Klebsiella pneumoniae [5], 0.06 µg/mL (≈ 0.0504 µM); in the data set on Acinetobacter baumannii [6] it was 0.06 µg/mL (≈ 0.0504 µM). Besides, the MIC in the data set on Escherichia coli [7] and in the data set on Escherichia coli [9] was no more than 0.03 µg/mL in each case. The same compound registered an IC50 at 72 h in data set [8] greater than 500 µg/mL.
In data set [8], `CCCCCCCC(=O)N[C@@H](CCN)C(=O)N[C@H](C(=O)N[C@@H](CCN)C(=O)N[C@H]1CCNC(=O)[C@H]([C@@H](C)O)NC(=O)[C@H](CCN)NC(=O)[C@H](CCN)NC(=O)[C@H]([C@@H](C)O)NC(=O)[C@@H](CC(C)C)NC(=O)[C@H](CCN)NC1=O)[C@@H](C)O` (Octanoyl-[Dab]T[Dab][Dab][Dab][dL]T[Dab][Dab]T; lactam 4-C) registered an IC50 at 72 h greater than 500 µg/mL.
